A short description of this data set: physchem. The following applies: buffer, pH 7.68.

Here are results for 1 molecule from patent US8354454B2, “Prodrugs of oxazolidinone CETP inhibitors” (Merck Sharp & Dohme Corp., priority 2008, dated 2013).

As usually defined, the half-life is the time needed for the level to fall by half in the phase considered. Read a low half-life as fast loss.

Method: 50 μL aliquots were removed periodically. […] Each aliquot was diluted with MeCN-d3 (150 μL), and a ^1H NMR spectrum was acquired (128 scans at 25° C., with acquisition starting 3 minutes after the aliquot was taken from the reaction).
The methods for determining the half-lives were approximately the same as described above, with variations in procedure depending on such variables as solubility and reaction rates.

For the molecule `COc1cc(F)c(C(C)C)cc1-c1ccc(C(F)(F)F)cc1CN[C@@H](C)[C@H](OC(=O)OC(COP(=O)(O)O)COP(=O)(O)O)c1cc(C(F)(F)F)cc(C(F)(F)F)c1` [Example 47, (8R,9S)-8-[3,5-bis(trifluoromethyl)phenyl]-N-{[4′-fluoro-5′-isopropyl-2′-methoxy-4-(trifluoromethyl)biphenyl-2-yl]methyl}-1,1-dihydroxy-6-oxo-4-[(phosphonooxy)methyl]-2,5,7-trioxa-1λ^5-phosphadecan-9-aminium1-oxide chloride], the half-life is approximately 2.5 h.
